# Test results taken from BindingDB's records for patent US10975056 (Glaxosmithkline Intellectual Property Development, 2021).
# pIC50: −log10 of the molar value.
# Molecular target: DNA (cytosine-5)-methyltransferase 1 (Homo sapiens, UniProt P26358)
# Experiment: Biochemical Activity Assay
# Protocol: Biochemical activity of DNMT1 analyzed using SPA technology. […] Low control wells contained 5 μL of buffer instead of enzyme. Following a 40 minute incubation, the reaction was quenched upon the addition of 10 μL of stop mixture containing 1 mM SAM (Sigma A7007) and 2 mg/mL PEI beads (Perkin Elmer RPNQ0098).
# Chain of DNA (cytosine-5)-methyltransferase 1 (P26358 whole entry): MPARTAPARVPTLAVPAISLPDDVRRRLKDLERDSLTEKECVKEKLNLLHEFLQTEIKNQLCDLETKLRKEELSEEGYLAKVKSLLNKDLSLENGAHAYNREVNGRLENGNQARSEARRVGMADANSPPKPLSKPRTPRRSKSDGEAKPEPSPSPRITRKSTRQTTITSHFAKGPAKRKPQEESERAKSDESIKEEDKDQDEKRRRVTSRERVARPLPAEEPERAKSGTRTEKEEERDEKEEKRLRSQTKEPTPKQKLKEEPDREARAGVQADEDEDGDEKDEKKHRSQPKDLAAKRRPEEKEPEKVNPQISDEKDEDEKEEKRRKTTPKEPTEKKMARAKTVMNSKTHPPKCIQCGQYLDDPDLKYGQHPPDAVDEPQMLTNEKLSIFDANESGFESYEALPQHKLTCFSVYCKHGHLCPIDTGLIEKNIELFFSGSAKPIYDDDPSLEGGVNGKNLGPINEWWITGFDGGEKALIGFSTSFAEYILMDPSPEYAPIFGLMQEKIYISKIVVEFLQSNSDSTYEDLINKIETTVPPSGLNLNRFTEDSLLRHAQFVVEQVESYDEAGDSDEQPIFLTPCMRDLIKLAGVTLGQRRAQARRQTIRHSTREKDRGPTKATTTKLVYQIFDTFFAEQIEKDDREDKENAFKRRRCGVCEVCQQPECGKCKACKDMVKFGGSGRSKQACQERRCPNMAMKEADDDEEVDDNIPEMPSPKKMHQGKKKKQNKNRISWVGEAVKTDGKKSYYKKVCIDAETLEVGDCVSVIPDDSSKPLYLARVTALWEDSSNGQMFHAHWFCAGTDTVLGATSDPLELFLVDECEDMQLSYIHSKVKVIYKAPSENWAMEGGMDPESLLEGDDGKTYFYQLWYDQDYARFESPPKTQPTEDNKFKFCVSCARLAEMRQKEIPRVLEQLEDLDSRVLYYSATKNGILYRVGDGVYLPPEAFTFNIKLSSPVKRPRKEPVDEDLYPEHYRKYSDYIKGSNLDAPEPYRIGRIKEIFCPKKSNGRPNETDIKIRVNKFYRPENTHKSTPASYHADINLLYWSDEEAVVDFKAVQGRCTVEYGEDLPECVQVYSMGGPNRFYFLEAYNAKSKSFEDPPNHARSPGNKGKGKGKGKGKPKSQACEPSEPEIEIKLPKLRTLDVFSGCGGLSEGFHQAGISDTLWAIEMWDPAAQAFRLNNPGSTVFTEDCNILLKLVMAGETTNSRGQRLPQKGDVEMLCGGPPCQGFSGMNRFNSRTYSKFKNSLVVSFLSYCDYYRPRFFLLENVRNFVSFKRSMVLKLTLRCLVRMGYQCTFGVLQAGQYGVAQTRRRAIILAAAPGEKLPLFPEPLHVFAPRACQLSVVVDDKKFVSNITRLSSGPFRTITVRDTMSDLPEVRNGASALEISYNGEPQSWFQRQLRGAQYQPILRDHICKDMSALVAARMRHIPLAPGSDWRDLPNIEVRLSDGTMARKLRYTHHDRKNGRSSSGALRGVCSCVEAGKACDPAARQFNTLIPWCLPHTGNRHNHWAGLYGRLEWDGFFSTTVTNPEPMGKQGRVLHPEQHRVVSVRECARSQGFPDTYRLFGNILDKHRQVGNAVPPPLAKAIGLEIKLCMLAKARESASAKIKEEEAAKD
row,pIC50,SMILES
1,> 6.49,"CCc1c(C#N)c(SCc2ccc(S(N)(=O)=O)cc2)nc(N2CCCN(C)CC2)c1C#N [US10975056, Example 76]"
2,> 6.49,"CCc1c(C#N)c(SC(C(N)=O)c2ccccc2)nc(N2CCC(NCC3(C)CCC3)CC2)c1C#N (centres undefined) [US10975056, Example 466]"
3,> 6.49,"CCc1c(C#N)c(SC(C(N)=O)c2ccccc2)nc(N2CCC(N3[C@H](C)CC[C@H]3C)CC2)c1C#N (some centres undefined) [US10975056, Example 472]"
4,> 6.49,"CCc1c(C#N)c(SC(C(N)=O)c2ccccc2)nc(N(C)CC(=O)N2CC[C@@H](CO)C2)c1C#N (some centres undefined) [US10975056, Example 652]"
